Legend:
Assay in all cases: KINOMEscan Max
Type in all cases: binding
[1] = target: T1, PFPK5(P.falciparum) (Plasmodium falciparum, UniProt P61075)
T1 construct: DNA tag (qPCR read-out)
Procedure, shortened: (§1)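 Compound displacement of DNA-tagged kinase from immobilized active-site ligand; qPCR of tag as read-out.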

[2] = target: T2, RPS6KA4(Kin.Dom.1-N-terminal) (Homo sapiens, UniProt O75676)
T2 construct: RPS6KA4(Kin.Dom.1-N-terminal); DNA tag (qPCR read-out)
Procedure, shortened: as §1

[3] = target: T3, CDKL3 (Homo sapiens, UniProt Q8IVW4)
T3 construct: purchased Ambit Kinomescan (contract screening)
Procedure, shortened: as §1

[4] = target: T4, RPS6KA4(Kin.Dom.2-C-terminal) (Homo sapiens, UniProt O75676)
T4 construct: RPS6KA4(Kin.Dom.2-C-terminal); purchased Ambit Kinomescan (contract screening)
Procedure, shortened: as §1

[5] = target: T5, ACVR2A (Homo sapiens, UniProt P27037)
T5 construct: DNA tag (qPCR label); purchased Ambit Kinomescan (contract screening)
Procedure, shortened: as §1

[6] = target: T6, ABL1(F317L)-nonphosphorylated (Homo sapiens, UniProt P00519, F317L)
T6 construct: purchased Ambit (KINOMEscan Max service)
Procedure, shortened: as §1

[7] = target: PHKG1 (Homo sapiens, UniProt Q16816)
Procedure, shortened: as §1

[8] = target: T7, ULK1 (Homo sapiens, UniProt O75385); settings: 1 μM
T7 construct: DNA tag (qPCR read-out)
Procedure, shortened: as §1

[9] = target: T8, TYK2(JH2domain-pseudokinase) (Homo sapiens, UniProt P29597); settings: 1 μM
T8 construct: TYK2(JH2domain-pseudokinase); purchased Ambit Kinomescan (contract screening service)
Procedure, shortened: as §1

[10] = target: EPHA2 (Homo sapiens, UniProt P29317)
Procedure, shortened: as §1

[11] = target: T9, LATS1 (Homo sapiens, UniProt O95835)
T9 construct: purchased Ambit Kinomescan (contract panel)
Procedure, shortened: as §1

[12] = target: T10, FGFR3 (Homo sapiens, UniProt P22607)
T10 construct: purchased Ambit (KINOMEscan Max service)
Procedure, shortened: as §1

[13] = target: MTOR (Homo sapiens, UniProt P42345)
Procedure, shortened: as §1

[14] = target: EGFR(L861Q) (Homo sapiens, UniProt P00533, L861Q); settings: 1 μM
Procedure, shortened: as §1

[15] = target: T11, MYLK4 (Homo sapiens, UniProt Q86YV6)
T11 construct: DNA tag (qPCR read-out); purchased Ambit Kinomescan
Procedure, shortened: as §1

[16] = target: T12, CDK9 (Homo sapiens, UniProt P50750)
T12 construct: DNA tag (qPCR read-out)
Procedure, shortened: as §1

[17] = target: T13, MEK1 (Homo sapiens, UniProt Q02750)
T13 construct: purchased Ambit Kinomescan (contract panel)
Procedure, shortened: as §1

[18] = target: T14, SRPK1 (Homo sapiens, UniProt Q96SB4)
T14 construct: purchased Ambit (KINOMEscan Max service)
Procedure, shortened: as §1

[19] = target: KIT (Homo sapiens, UniProt P10721)
Procedure, shortened: as §1

[20] = target: T15, STK16 (Homo sapiens, UniProt O75716)
T15 construct: DNA tag (qPCR read-out)
Procedure, shortened: as §1

[21] = target: T16, PIK3CG (Homo sapiens, UniProt P48736)
T16 construct: purchased Ambit Kinomescan (contract screening)
Procedure, shortened: as §1

[22] = target: T17, ERK4 (Homo sapiens, UniProt P31152)
T17 construct: purchased Ambit Kinomescan (contract screening)
Procedure, shortened: as §1

[23] = target: T18, CAMK4 (Homo sapiens, UniProt Q16566)
T18 construct: DNA tag (qPCR label); purchased Ambit Kinomescan (contract screening)
Procedure, shortened: as §1

[24] = target: T19, IRAK3 (Homo sapiens, UniProt Q9Y616)
T19 construct: purchased Ambit (KINOMEscan Max service)
Procedure, shortened: as §1

[25] = target: T20, EPHA7 (Homo sapiens, UniProt Q15375)
T20 construct: purchased Ambit (KINOMEscan Max panel service)
Procedure, shortened: as §1

[26] = target: DCAMKL1 (Homo sapiens, UniProt O15075); settings: 1 μM
Procedure, shortened: as §1

[27] = target: T21, ADCK4 (Homo sapiens, UniProt Q96D53)
T21 construct: DNA tag (qPCR read-out)
Procedure, shortened: as §1

[28] = target: AURKB (Homo sapiens, UniProt Q96GD4)
Procedure, shortened: as §1

[29] = target: MRCKB (Homo sapiens, UniProt Q9Y5S2)
Procedure, shortened: as §1

[30] = target: T22, BIKE (Homo sapiens, UniProt Q9NSY1)
T22 construct: purchased Ambit (KINOMEscan Max service)
Procedure, shortened: as §1

[31] = target: YANK3 (Homo sapiens, UniProt Q86UX6)
Procedure, shortened: as §1

[32] = target: T23, LCK (Homo sapiens, UniProt P06239)
T23 construct: purchased Ambit Kinomescan (contract panel)
Procedure, shortened: as §1

[33] = target: T24, AKT1 (Homo sapiens, UniProt P31749)
T24 construct: purchased Ambit (KINOMEscan Max service)
Procedure, shortened: as §1

T10 sequence (P22607 23-806): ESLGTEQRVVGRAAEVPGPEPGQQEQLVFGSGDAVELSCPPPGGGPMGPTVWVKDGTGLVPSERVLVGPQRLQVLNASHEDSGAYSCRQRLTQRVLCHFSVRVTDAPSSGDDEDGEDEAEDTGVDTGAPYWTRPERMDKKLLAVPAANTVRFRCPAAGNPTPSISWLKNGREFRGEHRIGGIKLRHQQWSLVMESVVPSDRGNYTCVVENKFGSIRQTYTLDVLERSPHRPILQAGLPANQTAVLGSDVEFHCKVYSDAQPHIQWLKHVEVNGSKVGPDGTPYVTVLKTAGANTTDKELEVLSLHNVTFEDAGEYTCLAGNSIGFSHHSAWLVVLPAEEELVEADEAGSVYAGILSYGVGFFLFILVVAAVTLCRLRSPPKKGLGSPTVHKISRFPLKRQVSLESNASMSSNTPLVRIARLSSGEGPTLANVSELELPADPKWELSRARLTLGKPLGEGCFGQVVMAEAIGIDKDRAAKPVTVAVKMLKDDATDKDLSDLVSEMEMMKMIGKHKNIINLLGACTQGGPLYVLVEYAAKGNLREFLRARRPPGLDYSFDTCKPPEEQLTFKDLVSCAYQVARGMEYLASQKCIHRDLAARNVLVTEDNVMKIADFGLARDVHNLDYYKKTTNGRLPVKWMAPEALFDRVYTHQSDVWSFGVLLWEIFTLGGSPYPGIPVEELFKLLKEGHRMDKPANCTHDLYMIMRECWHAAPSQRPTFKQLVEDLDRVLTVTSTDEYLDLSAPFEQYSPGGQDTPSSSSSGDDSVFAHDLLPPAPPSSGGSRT
T3 sequence (Q8IVW4 whole entry): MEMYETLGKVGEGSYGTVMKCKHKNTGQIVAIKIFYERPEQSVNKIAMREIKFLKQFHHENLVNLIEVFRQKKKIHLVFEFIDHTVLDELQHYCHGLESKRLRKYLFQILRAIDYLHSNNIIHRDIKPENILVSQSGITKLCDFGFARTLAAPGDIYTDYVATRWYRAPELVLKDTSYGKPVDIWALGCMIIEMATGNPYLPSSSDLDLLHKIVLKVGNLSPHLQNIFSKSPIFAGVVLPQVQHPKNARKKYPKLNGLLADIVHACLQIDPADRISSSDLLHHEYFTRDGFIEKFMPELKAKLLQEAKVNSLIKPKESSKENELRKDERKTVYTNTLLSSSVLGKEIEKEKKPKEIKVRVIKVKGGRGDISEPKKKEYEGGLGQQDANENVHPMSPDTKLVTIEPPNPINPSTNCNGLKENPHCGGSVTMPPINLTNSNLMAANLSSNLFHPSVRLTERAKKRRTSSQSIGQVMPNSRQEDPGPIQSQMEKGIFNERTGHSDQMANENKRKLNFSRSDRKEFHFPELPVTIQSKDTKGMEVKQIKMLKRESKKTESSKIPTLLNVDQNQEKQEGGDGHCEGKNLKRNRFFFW
T16 sequence (P48736 whole entry): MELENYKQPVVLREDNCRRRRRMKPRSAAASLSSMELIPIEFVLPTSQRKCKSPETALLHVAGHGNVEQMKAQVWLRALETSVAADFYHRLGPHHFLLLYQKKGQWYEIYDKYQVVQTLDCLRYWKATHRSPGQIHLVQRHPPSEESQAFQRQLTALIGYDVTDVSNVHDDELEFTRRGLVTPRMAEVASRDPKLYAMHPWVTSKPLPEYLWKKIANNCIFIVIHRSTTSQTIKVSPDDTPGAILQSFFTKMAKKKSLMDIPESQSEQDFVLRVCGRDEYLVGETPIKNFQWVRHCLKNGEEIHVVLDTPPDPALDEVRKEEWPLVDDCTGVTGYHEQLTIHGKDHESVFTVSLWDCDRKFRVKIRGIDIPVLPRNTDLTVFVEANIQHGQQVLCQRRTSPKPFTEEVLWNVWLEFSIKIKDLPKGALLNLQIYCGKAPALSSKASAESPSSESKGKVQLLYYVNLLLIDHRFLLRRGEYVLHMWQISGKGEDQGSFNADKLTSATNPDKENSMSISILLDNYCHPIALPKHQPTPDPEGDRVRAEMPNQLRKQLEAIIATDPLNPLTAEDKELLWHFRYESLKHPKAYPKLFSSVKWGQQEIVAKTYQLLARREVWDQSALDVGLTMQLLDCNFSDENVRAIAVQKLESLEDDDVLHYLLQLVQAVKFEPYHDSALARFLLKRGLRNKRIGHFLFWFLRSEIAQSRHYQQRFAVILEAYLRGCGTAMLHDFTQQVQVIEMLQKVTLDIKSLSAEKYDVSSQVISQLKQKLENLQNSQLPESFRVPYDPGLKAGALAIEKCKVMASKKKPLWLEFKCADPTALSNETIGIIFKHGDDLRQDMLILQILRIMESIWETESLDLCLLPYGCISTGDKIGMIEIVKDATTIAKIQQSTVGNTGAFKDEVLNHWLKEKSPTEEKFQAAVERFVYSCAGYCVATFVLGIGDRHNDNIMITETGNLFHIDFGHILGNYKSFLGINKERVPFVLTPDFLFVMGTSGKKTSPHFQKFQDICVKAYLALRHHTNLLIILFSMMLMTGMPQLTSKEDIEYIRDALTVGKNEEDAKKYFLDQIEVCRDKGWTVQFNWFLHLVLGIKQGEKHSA
T20 sequence (Q15375 28-998): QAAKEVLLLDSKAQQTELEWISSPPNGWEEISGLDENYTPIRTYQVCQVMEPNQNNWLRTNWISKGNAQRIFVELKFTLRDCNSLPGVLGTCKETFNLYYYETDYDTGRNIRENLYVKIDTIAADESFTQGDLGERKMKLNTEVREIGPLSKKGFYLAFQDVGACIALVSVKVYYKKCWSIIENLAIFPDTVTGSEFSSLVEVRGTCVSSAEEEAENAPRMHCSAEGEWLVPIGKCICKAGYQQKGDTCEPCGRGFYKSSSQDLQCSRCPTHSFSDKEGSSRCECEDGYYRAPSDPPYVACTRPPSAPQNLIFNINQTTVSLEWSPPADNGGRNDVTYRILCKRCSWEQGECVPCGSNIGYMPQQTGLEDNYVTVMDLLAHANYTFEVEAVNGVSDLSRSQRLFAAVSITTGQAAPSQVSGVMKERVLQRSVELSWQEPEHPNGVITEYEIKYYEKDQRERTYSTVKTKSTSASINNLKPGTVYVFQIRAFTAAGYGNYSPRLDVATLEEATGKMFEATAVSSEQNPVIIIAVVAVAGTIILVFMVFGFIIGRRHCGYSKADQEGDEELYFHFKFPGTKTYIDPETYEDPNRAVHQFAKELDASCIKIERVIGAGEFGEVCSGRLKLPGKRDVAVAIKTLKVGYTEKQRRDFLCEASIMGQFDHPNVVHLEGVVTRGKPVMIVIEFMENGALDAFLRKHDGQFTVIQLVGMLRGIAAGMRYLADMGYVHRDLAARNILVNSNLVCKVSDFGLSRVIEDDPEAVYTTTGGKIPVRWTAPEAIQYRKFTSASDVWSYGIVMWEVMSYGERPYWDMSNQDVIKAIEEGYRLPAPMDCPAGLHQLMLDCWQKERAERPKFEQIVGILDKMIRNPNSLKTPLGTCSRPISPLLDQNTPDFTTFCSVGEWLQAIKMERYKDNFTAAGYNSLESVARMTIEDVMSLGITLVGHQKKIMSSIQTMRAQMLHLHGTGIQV
T13 sequence (Q02750 whole entry): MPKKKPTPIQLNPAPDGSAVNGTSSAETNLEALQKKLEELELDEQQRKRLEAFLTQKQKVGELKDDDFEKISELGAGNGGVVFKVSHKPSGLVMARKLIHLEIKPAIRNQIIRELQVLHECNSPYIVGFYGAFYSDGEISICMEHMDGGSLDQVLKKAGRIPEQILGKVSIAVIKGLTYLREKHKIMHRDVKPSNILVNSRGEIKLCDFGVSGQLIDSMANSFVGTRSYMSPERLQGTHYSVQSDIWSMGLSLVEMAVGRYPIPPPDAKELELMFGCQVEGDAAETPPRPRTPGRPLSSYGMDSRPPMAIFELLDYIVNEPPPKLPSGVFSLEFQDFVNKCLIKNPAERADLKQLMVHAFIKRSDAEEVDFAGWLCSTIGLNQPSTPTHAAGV
T24 sequence (P31749 whole entry): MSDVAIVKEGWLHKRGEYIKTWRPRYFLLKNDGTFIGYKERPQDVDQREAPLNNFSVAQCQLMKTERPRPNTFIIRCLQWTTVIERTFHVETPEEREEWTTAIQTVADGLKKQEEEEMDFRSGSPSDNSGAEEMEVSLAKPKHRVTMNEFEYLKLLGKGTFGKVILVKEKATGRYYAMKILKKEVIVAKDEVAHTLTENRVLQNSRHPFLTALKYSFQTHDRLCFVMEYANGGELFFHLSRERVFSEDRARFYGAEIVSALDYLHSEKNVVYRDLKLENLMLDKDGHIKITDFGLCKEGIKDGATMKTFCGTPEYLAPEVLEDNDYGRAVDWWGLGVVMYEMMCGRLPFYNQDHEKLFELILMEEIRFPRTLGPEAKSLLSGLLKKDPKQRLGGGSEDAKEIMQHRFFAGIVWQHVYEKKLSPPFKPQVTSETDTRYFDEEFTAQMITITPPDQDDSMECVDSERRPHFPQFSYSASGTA
T4 sequence (O75676 411-674 limits assumed): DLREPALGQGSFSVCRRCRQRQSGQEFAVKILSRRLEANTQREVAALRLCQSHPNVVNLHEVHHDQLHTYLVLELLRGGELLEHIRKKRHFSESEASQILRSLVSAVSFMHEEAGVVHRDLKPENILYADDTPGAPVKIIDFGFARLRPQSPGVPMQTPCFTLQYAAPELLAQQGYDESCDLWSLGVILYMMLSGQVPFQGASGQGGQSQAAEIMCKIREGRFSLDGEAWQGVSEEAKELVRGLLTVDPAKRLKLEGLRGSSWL
AURKB, sequence (Q96GD4 whole entry): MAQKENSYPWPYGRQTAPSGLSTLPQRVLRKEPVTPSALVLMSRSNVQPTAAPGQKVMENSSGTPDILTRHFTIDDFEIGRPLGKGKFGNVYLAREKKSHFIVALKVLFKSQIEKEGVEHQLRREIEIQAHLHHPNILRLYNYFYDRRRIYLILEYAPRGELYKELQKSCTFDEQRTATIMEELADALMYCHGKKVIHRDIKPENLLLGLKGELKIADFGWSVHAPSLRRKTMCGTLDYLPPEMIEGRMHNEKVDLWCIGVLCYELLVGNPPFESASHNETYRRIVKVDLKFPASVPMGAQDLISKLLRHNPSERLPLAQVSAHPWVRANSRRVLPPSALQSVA

`NCCCNc1nc2c(Br)c(Br)c(Br)c(Br)c2[nH]1` [Compound 11, N-(3-aminopropyl)-4,5,6,7-tetrabromo-1H-benzo[d]imidazol-2-amine] gave a remaining binding at 1 µM [1] of 100%, a remaining binding at 1 µM [2] of 55% and a remaining binding at 1 µM [3] of 98%. For the same compound, the remaining binding at 1 µM [4] was 97%, the remaining binding at 1 µM [5] was 100% and the remaining binding at 1 µM [6] was 67%. For the same compound, the remaining binding at 1 µM [7] was 94%, the “% binding” value [8] was 30% and the “% binding” value [9] was 100%. The remaining binding at 1 µM [10] was 92%, the remaining binding at 1 µM [11] was 100% and the remaining binding at 1 µM [12] was 84%. The remaining binding at 1 µM [13] was 100%, the “% binding” value [14] was 96% and the remaining binding at 1 µM [15] was 24%. It also gave a remaining binding at 1 µM [16] of 90%, a remaining binding at 1 µM [17] of 100% and a remaining binding at 1 µM [18] of 67%. The remaining binding at 1 µM [19] was 96%, the remaining binding at 1 µM [20] was 87% and the remaining binding at 1 µM [21] was 96%. The remaining binding at 1 µM [22] was 98%, the remaining binding at 1 µM [23] was 100% and the remaining binding at 1 µM [24] was 86%. For the same compound, the remaining binding at 1 µM [25] was 100%, the “% binding” value [26] was 96% and the remaining binding at 1 µM [27] was 87%. It also gave a remaining binding at 1 µM [28] of 94%, a remaining binding at 1 µM [29] of 100% and a remaining binding at 1 µM [30] of 60%. For the same compound, the remaining binding at 1 µM [31] was 93%, the remaining binding at 1 µM [32] was 100% and the remaining binding at 1 µM [33] was 70%.

Reference: patent US20110230481A2, “DERIVATIVES OF TETRABROMOBENZIMIDAZOLE, A PROCESS FOR THE PREPARATION THEREOF, A PHARMACEUTICAL COMPOSITION COMPRISING THE SAME, A METHOD OF USING THE SAME, A METHOD FOR MODULATING OR REGULATING SERINE/THREONINE KINASES, AND SERINE/THREONINE KINASES MODULATING AGENT” (SELVITA S.A., priority 2009, published 2011)
